We go through one compound from US7494821B2, “Fluorescein based sensors for tracking nitric oxide in live cells” (Massachusetts Institute of Technology, priority 2005, dated 2009).

The experiment relates to mixture of Raw 264.7 and SK-N-SH cells. The experiment is described as follows: NO imaging in Raw 264.7 and SK-N-SH co-culture. The format is cell-based. As to conditions: 17β-estradiol (100 nM) and Cu(FL5) (1 μM) for 10 min. How it is done:
FIG. 9 illustrates NO detection in SK-N-SH and Raw 264.7 cells by Cu(FL5). Cells were treated with Cu(FL5) (1 μM) and 17β-estradiol (500 nM) for 10 min. The media were subsequently removed and the cells washed with PBS. Images were taken with a Nikon Eclipse TS100 microscope.
The fluorescence response was also monitored in a mixture of Raw 264.7 and SK-N-SH cells grown on the same plate and co-treated with 17β-estradiol (100 nM) and Cu(FL5) (1 μM) for 10 min.

In the case of `Cc1ccc2cccc(NCc3c([O][Cu][Cl])ccc4c(-c5ccccc5C(=O)O)c5cc(Cl)c(=O)cc-5oc34)c2n1` [Cu(FL5)], the “fluorescence response in co-culture” value is “fluorescence increase was observed exclusively in the SK-N-SH cells”.
